Each block holds one compound with its values, some of them ahead of it.
Tests used:
[1] = target: T1, human sphingosine-1-phosphate receptor 1 (S1P1) (Homo sapiens (Human), UniProt P21453); assay: Inhibition of cAMP production (HTRF cAMP HiRange), S1P1 CHO-K1 cells; assay type: cell-based; conditions: for hS1P1 cAMP pEC50: inhibition of cAMP production, S1P1 CHO-K1 cells; for Emax: CHO-K1, efficacy (SPAN) normalized to fingolimod, read-out: hS1P1 cAMP SPAN
Method: (§1) Stable clonal Chinese hamster ovary K1 (CHO-K1) cells co-expressing EA-β-arrestin2 and the human sphingosine-1-phosphate receptor 1 (NM_001400, S1P1) with a C-terminal Prolink™ tag were purchased from DiscoverX corporation (Cat #: 93-0207C2).
(§2) Cell lines were cultured in AssayComplete™ Media 6 (DiscoverX Corporation, Cat #: 920018GF2) at 37° C. and 5% CO2 in a humidified CO2 and temperature-controlled incubator. To begin assay plating, cells were washed with dulbecco's phosphate buffered saline (CellGro, Cat #: 21-031-CV) and lifted from the culturing flask by incubation (37° C., 5 min) with CellStripper (Cellgro, Cat #: 25-056-CI). […] Plated cells were incubated overnight at 37° C. and 5% CO2 in a humidified CO2 and temperature-controlled incubator. Detecting Inhibition of cAMP Production
Agonist-promoted G-protein responses were determined by measuring changes in intracellular cAMP using the HTRF® cAMP HiRange kit (CisBio, Cat #: 62AM6PEJ) based on time-resolved fluorescence resonance energy transfer (TR-FRET) technology. […] Following a 30-minute incubation at 37° C. and 5% CO2 in a humidified CO2 and temperature-controlled incubator, the components of the cAMP HiRange kit were added as per the manufacturer's instructions. After an hour incubation at room temperature, plates were analyzed by a BMG PheraStar microplate reader.
(§3) The tables below include the efficacy of the compound as compared to a positive control, referred to as “SPAN”. These values are normalized to fingolimod, a known agonist of the sphingosine-1-phosphate 1 receptor. The tables also include potency values (pEC50) for modulating discrete receptor-mediated activities (inhibition of cAMP production and […] recruitment).
Target sequence in this assay (P21453 whole entry, looked up): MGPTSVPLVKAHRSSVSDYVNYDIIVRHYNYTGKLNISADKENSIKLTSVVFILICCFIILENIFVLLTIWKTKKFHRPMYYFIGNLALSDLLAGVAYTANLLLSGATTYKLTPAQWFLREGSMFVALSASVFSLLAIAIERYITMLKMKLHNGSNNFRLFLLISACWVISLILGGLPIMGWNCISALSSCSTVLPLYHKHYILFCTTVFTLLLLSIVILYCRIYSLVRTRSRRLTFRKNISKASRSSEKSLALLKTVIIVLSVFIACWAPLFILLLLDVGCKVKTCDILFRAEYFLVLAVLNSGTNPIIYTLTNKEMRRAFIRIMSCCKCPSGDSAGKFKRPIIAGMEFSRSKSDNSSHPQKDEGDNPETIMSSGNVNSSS

[2] = target: T1, human sphingosine-1-phosphate receptor 1 (S1P1); assay: β-Arrestin2 recruitment assay (PathHunter), S1P1 CHO-K1 cells; assay type: cell-based; conditions: for hS1P1 B-arrestin2 pEC50: β-arrestin2 recruitment, S1P1 CHO-K1 cells; for Emax: CHO-K1, efficacy (SPAN) normalized to fingolimod, read-out: hS1P1 B-arrestin2 SPAN
Method: as §1, §2
Target sequence in this assay (P21453 whole entry, looked up): as above
Target sequence in this assay (P32121 whole entry partner, looked up): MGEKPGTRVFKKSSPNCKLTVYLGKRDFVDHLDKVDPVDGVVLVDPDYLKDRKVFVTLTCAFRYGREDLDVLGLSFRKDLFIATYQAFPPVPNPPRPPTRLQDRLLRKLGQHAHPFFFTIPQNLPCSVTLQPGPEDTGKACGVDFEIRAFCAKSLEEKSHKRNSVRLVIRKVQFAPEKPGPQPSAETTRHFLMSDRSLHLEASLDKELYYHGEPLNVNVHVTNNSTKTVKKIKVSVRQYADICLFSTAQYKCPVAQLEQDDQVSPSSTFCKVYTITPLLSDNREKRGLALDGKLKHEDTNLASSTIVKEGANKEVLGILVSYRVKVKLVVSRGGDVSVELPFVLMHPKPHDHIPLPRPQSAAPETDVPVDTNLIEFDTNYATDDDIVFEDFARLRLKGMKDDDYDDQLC
Agonist-promoted β-arrestin2 recruitment to the sphingosine-1-phosphate 1 receptor was determined using the β-arrestin PathHunter®) Detection kit (DiscoverX Corporation, Cat #: 93-0001). […] In cells that stably express these fusion proteins, stimulation with a cognate agonist results in the interaction of […] and the Prolink™-tagged GPCR. This allows the complementation of the two β-galactosidase fragments and results in the formation of a functional enzyme with β-galactosidase activity. […] Following a 60 minute incubation at 37° C. and 5% CO2 in a humidified CO2 and temperature-controlled incubator, the components of the β-arrestin PathHunter® Detection kit were added as per the manufacturer's instructions. After an hour incubation at room temperature, plates were analyzed by a BMG PheraStar microplate reader.
as §3

SMILES: CCC1(CC)CC(=O)c2cc(-c3nc(-c4ccc(S(=O)(=O)N(C)C)cc4)no3)ccc2O1 [Compound 30, 4-(5-(2,2-diethyl-4-oxochroman-6-yl)-1,2,4-oxadiazol-3-yl)-N,N-dimethylbenzenesulfonamide]
- hS1P1 cAMP pEC50 [1]: <6.5
- hS1P1 B-arrestin2 pEC50 [2]: <5

SMILES: CCC1(CC)CC(=O)c2cc(-c3nc(-c4ccncc4C)no3)ccc2O1 [Compound 31, 2,2-diethyl-6-(3-(3-methylpyridin-4-yl)-1,2,4-oxadiazol-5-yl)chroman-4-one]
- Emax [1]: > 75%
- hS1P1 cAMP pEC50 [1]: >6.5
- Emax [2]: > 75%
- hS1P1 B-arrestin2 pEC50 [2]: >5

SMILES: CCC1(CC)CC(=O)c2cc(-c3nc(-c4ccc(C)s4)no3)ccc2O1 [Compound 34, 2,2-diethyl-6-(3-(5-methylthiophen-2-yl)-1,2,4-oxadiazol-5-yl)chroman-4-one]
- hS1P1 cAMP pEC50 [1]: <6.5
- hS1P1 B-arrestin2 pEC50 [2]: >5

SMILES: O=C1CC2(CCC(F)(F)CC2)Oc2ccc(-c3nc(-c4cccnc4)no3)cc21 [Compound 36, 4′,4′-difluoro-6-[3-(pyridin-3-yl)-1,2,4-oxadiazol-5-yl]-3,4-dihydrospiro[1-benzopyran-2,1′-cyclohexane]-4-one]
- Emax [1]: < 75%
- hS1P1 cAMP pEC50 [1]: <6.5
- Emax [2]: < 75%
- hS1P1 B-arrestin2 pEC50 [2]: <5

SMILES: CCC1(CC)CC(=O)c2cc(-c3nc(-c4ccnc(OC)c4)no3)ccc2O1 [Compound 38, 2,2-diethyl-6-(3-(2-methoxypyridin-4-yl)-1,2,4-oxadiazol-5-yl)chroman-4-one]
- Emax [1]: < 75%
- hS1P1 cAMP pEC50 [1]: <6.5
- Emax [2]: > 75%
- hS1P1 B-arrestin2 pEC50 [2]: <5

SMILES: C=CCn1nc2ccc(-c3nc(-c4ccccc4)no3)cc2n1 [Compound 39, 5-(3-phenyl-1,2,4-oxadiazol-5-yl)-2-(prop-2-en-1-yl)-2H-1,2,3-benzotriazole]
- hS1P1 cAMP pEC50 [1]: <6.5
- hS1P1 B-arrestin2 pEC50 [2]: <5

SMILES: Brc1ccccc1-c1nc(-c2ccc3c(c2)nnn3C2CCCC2)no1 [Compound 40, 5-(2-bromophenyl)-3-(1-cyclopentyl-1H-benzo[d][1,2,3]triazol-5-yl)-1,2,4-oxadiazole]
- hS1P1 cAMP pEC50 [1]: >6.5
- hS1P1 B-arrestin2 pEC50 [2]: >5

SMILES: O=C1CC2(CCCCC2)Oc2ccc(-c3nc(-c4cccnc4)no3)cc21 [Compound 41, 6-[3-(pyridin-3-yl)-1,2,4-oxadiazol-5-yl]-3,4-dihydrospiro[1-benzopyran-2,1′-cyclohexane]-4-one]
- Emax [1]: < 75%
- hS1P1 cAMP pEC50 [1]: <6.5
- Emax [2]: < 75%
- hS1P1 B-arrestin2 pEC50 [2]: <5

SMILES: C=CCn1nnc2cc(-c3noc(-c4ccccc4Br)n3)ccc21 [Compound 42, 3-(1-allyl-1H-benzo[d][1,2,3]triazol-5-yl)-5-(2-bromophenyl)-1,2,4-oxadiazole]
- hS1P1 cAMP pEC50 [1]: <6.5
- hS1P1 B-arrestin2 pEC50 [2]: <5

SMILES: Cc1ccsc1-c1noc(-c2ccc3c(c2)nnn3C2CCCC2)n1 [Compound 46, 1-cyclopentyl-5-[3-(3-methylthiophen-2-yl)-1,2,4-oxadiazol-5-yl]-1H-1,2,3-benzotriazole]
- hS1P1 cAMP pEC50 [1]: >6.5
- hS1P1 B-arrestin2 pEC50 [2]: >5

SMILES: CSc1cccc(-c2nc(-c3ccc4c(c3)nnn4C3CCCC3)no2)c1 [Compound 47, 3-(1-cyclopentyl-1H-benzo[d][1,2,3]triazol-5-yl)-5-(3-(methylthio)phenyl)-1,2,4-oxadiazole]
- hS1P1 cAMP pEC50 [1]: <6.5
- hS1P1 B-arrestin2 pEC50 [2]: <5

SMILES: O=C1CCOc2ccc(-c3nc(-c4ccncc4)no3)cc21 [Compound 57, 6-[3-(pyridin-4-yl)-1,2,4-oxadiazol-5-yl]-3,4-dihydro-2H-1-benzopyran-4-one]
- hS1P1 cAMP pEC50 [1]: <6.5
- hS1P1 B-arrestin2 pEC50 [2]: <5

SMILES: CC1(C)CCC2(CC1)CC(=O)c1cc(-c3nc(-c4cccnc4)no3)ccc1O2 [Compound 58, 4′,4′-dimethyl-6-[3-(pyridin-3-yl)-1,2,4-oxadiazol-5-yl]-3,4-dihydrospiro[1-benzopyran-2,1′-cyclohexane]-4-one]
- Emax [1]: < 75%
- hS1P1 cAMP pEC50 [1]: <6.5
- Emax [2]: < 75%
- hS1P1 B-arrestin2 pEC50 [2]: <5

SMILES: C=CCNc1ccc(-c2nc(-c3ccc4c(c3)CCC(=O)N4)no2)cc1C#N [Compound 61, 2-(allylamino)-5-(3-(2-oxo-1,2,3,4-tetrahydroquinolin-6-yl)-1,2,4-oxadiazol-5-yl)benzonitrile]
- Emax [1]: > 75%
- hS1P1 cAMP pEC50 [1]: >6.5
- Emax [2]: > 75%
- hS1P1 B-arrestin2 pEC50 [2]: >5

Continued, values first:

- hS1P1 cAMP pEC50 [1]: <6.5
- hS1P1 B-arrestin2 pEC50 [2]: <5
SMILES: COc1ccccc1-c1nnc(-c2ccc3c(c2)nnn3C(C)C)o1 [Compound 35, 5-[5-(2-methoxyphenyl)-1,3,4-oxadiazol-2-yl]-1-(propan-2-yl)-1H-1,2,3-benzotriazole]

- hS1P1 cAMP pEC50 [1]: <6.5
- hS1P1 B-arrestin2 pEC50 [2]: <5
SMILES: CC(C)n1nnc2cc(-c3ncc(-c4ccc(F)cc4)s3)ccc21 [Compound 37, 5-(4-fluorophenyl)-2-(1-isopropylbenzotriazol-5-yl)thiazole]

- hS1P1 cAMP pEC50 [1]: >6.5
- hS1P1 B-arrestin2 pEC50 [2]: >5
SMILES: CC(C)n1nnc2cc(-c3noc(-c4ccccc4Br)n3)ccc21 [Compound 43, 5-(2-bromophenyl)-3-(1-isopropyl-1H-benzo[d][1,2,3]triazol-5-yl)-1,2,4-oxadiazole]

- hS1P1 cAMP pEC50 [1]: <6.5
- hS1P1 B-arrestin2 pEC50 [2]: <5
SMILES: Cc1nccnc1-c1nc(-c2ccc3c(c2)nnn3C(C)C)no1 [Compound 44, 3-(1-isopropyl-1H-benzo[d][1,2,3]triazol-5-yl)-5-(3-methylpyrazin-2-yl)-1,2,4-oxadiazole]

- hS1P1 cAMP pEC50 [1]: <6.5
- hS1P1 B-arrestin2 pEC50 [2]: <5
SMILES: Brc1ccccc1-c1nc(-c2ccc3c(c2)nnn3Cc2ccccn2)no1 [Compound 45, 5-(2-bromophenyl)-3-(1-(pyridin-2-ylmethyl)-1H-benzo[d][1,2,3]triazol-5-yl)-1,2,4-oxadiazole]

- hS1P1 cAMP pEC50 [1]: <6.5
- hS1P1 B-arrestin2 pEC50 [2]: <5
SMILES: Brc1ccccc1-c1nc(-c2ccc3c(c2)nnn3Cc2ccncc2)no1 [Compound 48, 5-(2-bromophenyl)-3-(1-(pyridin-4-ylmethyl)-1H-benzo[d][1,2,3]triazol-5-yl)-1,2,4-oxadiazole]

- hS1P1 cAMP pEC50 [1]: <6.5
- hS1P1 B-arrestin2 pEC50 [2]: <5
SMILES: CC(C)n1nnc2cc(-c3nc(-c4ccc(COc5ccccc5)cc4)no3)ccc21 [Compound 49, 5-{3-[4-(phenoxymethyl)phenyl]-1,2,4-oxadiazol-5-yl}-1-(propan-2-yl)-1H-1,2,3-benzotriazole]

- Emax [1]: < 75%
- hS1P1 cAMP pEC50 [1]: <6.5
- Emax [2]: < 75%
- hS1P1 B-arrestin2 pEC50 [2]: <5
SMILES: Cc1oc(-c2ccc3c(c2)nnn3C(C)C)nc1-c1ccc(Cl)cc1 [Compound 50, 5-[4-(4-chlorophenyl)-5-methyl-1,3-oxazol-2-yl]-1-(propan-2-yl)-1H-1,2,3-benzotriazole]

- hS1P1 cAMP pEC50 [1]: <6.5
- hS1P1 B-arrestin2 pEC50 [2]: <5
SMILES: COc1cnc(-c2nc(-c3ccc4c(c3)nnn4C(C)C)no2)cn1 [Compound 51, 3-(1-isopropyl-1H-benzo[d][1,2,3]triazol-5-yl)-5-(5-methoxypyrazin-2-yl)-1,2,4-oxadiazole]

- hS1P1 cAMP pEC50 [1]: <6.5
- hS1P1 B-arrestin2 pEC50 [2]: <5
SMILES: Brc1ccccc1-c1nc(-c2ccc3c(c2)nnn3Cc2ccccc2)no1 [Compound 52, 3-(1-benzyl-1H-benzo[d][1,2,3]triazol-5-yl)-5-(2-bromophenyl)-1,2,4-oxadiazole]

- Emax [1]: < 75%
- hS1P1 cAMP pEC50 [1]: <6.5
- Emax [2]: < 75%
- hS1P1 B-arrestin2 pEC50 [2]: <5
SMILES: CC(C)n1nnc2cc(-c3nc(-c4ccc(OCc5ccccc5)cc4)no3)ccc21 [Compound 53, 5-{3-[4-(benzyloxy)phenyl]-1,2,4-oxadiazol-5-yl}-1-(propan-2-yl)-1H-1,2,3-benzotriazole]

- hS1P1 cAMP pEC50 [1]: <6.5
- hS1P1 B-arrestin2 pEC50 [2]: <5
SMILES: CCCn1nnc2cc(-c3nc(-c4cccc(C)c4)no3)ccc21 [Compound 54, 5-[3-(3-methylphenyl)-1,2,4-oxadiazol-5-yl]-1-propyl-1H-1,2,3-benzotriazole]

- hS1P1 cAMP pEC50 [1]: <6.5
- hS1P1 B-arrestin2 pEC50 [2]: <5
SMILES: CC(C)C(c1ccccc1)c1noc(-c2ccc3c(c2)nnn3C(C)C)n1 (stereo not shown) [Compound 56, 5-[3-(2-methyl-1-phenylpropyl)-1,2,4-oxadiazol-5-yl]-1-(propan-2-yl)-1H-1,2,3-benzotriazole]

Reference: patent US11912693B2, “Compounds for modulating S1P1 activity and methods of using the same” (TREVENA, INC., priority 2017, dated 2024)
